The results in this text go back to a melting point compilation (Tetko et al.; mined from patent text by program, amines drawn as free bases though some values may be those of a salt).

Some results are limits rather than exact numbers.

The melting point is the temperature of the solid-liquid transition. Regarding `CN(C)C(=O)Nc1ccc(Oc2ccc(Cl)nn2)cc1`, the melting point was 173 to 174 °C.

Consider `O=C(O)c1ccc(C(=O)O)c(-c2nc3ccccc3[nH]2)c1`, for which the melting point is 312 to 314 °C. The value for `CCN1c2ncc(CS(=O)(=O)c3ccccc3)cc2C(=O)N(C)c2ccc(Cl)nc21` was 96 to 98 °C; that for `O=C(c1ccccc1)n1c2c(c3ccccc31)CC(CO)CC2` (configuration not stated) was 105 to 107 °C; that for `Clc1ccc(OCC2COC(CBr)(c3ccc(Cl)cc3)O2)cc1` (configuration not stated) was 165 °C. Under `Cc1oc(-c2ccccc2)nc1/C=C/c1ccc(C=O)cc1` stands 158 to 159 °C. For the molecule `C#CCn1c(=O)ccc2cc(F)c(-n3c(=O)cc(C(F)(F)F)n(C)c3=O)cc21`, the melting point is 236 to 238 °C.

`O=C(c1ccc(-n2ccc(C(F)(F)F)n2)cc1C(F)(F)F)N1Cc2cccnc2Nc2ccccc21` had a melting point of 127 to 129 °C. In turn, `CSc1nncn1-c1ccc(N2C[C@H](CNC(C)=O)OC2=O)cc1F` registered a melting point of 188 to 190 °C. The value for `N#Cc1ccc(N2CCC(=O)C2)c2ccccc12` was 153 to 154 °C. The value for `O=C1CCCN1CC1(O)CCN(c2ccnc(C(F)(F)F)n2)CC1` was 170 to 172 °C. The value for `Nc1ccc2c(c1)OCC(=S)N2` was 205 to 211 °C; that for `CC(C)(C)OC(=O)N[C@H]1CC[C@H](CN2CCN(c3cccc4c3CCC4)CC2)CC1` was 131 to 134 °C; that for `CCOC(=O)C1N=c2sccc2=CN1N` (configuration not stated) was 138 to 140 °C.

As for `O=C1c2ccc(Cl)c3c(N4CCCC4)cc(Cl)c(c23)C(=O)N1O`, the melting point lay within 243 to 245 °C. The molecule `O=CNNC(C(=O)O)c1ccccc1` (configuration not stated) came in with a melting point of 137 °C. Under `Cc1ccccc1C(=O)Nc1ccc(C(=O)N2CCCC(NC(=O)CN(C)C)c3ccccc32)cc1` (configuration not stated) stands 214 to 216 °C. The value for `C=C(F)Cc1ccc(OC)cc1OCc1ccccc1` was 77 to 78 °C; that for `CCN(CC)CCOc1ccc2cc3ccc(OCCN(CC)CC)c(CO)c3nc2c1CO` was 95 to 96 °C. The value for `CC(C)CNCc1cc2cc(NC(=O)c3ccc(C#CC4(O)CCC4)cc3)ccc2n1C` was 168 to 169 °C. Turning to `Cc1ccc(S(=O)(=O)OCC(C)O)cc1` (racemic), the melting point lay in the range of 49.5 to 50 °C. The value for `C/C(=C(\C#N)C(N)=S)N1CC[C@@H]2CCCC[C@H]2C1` (relative stereo) was 173 to 175 °C; that for `N#CC1=C(C2CC2)Nc2n[nH]cc2C1c1cccc(C#N)c1Br` (configuration not stated) was over 250 °C. Under `COc1ccc(C(C)c2cc3c(cc2OC)OCO3)cc1` (configuration not stated) stands 93 to 94 °C. Take `Cc1cc(Oc2ncc(C(F)(F)F)cc2Cl)nn1C(=O)N(C(C)C)C(C)C`: the melting point was 58 to 60 °C. The value for `Cc1cc(OCc2ccc(-c3ccc(C(F)(F)F)cc3)nc2C)ccc1OC(C)(C)C(=O)O` was 164 to 165 °C. The value for `CC(C)CC(C(=O)OCc1ccccc1)N1C(=O)C2(CCCN2C(=O)OC(C)(C)C)CC1O` (mixture of isomers) was 134 to 135 °C. Under `c1cc(CN2CCCCC2)cc(OCCCCCNc2nc3ccccc3s2)c1` stands 140 to 145 °C. In the case of `COC(=O)CNc1ccc(F)c(F)c1`, the melting point lay within 71 to 73 °C. The value for `CCOC(=O)CN1C(=O)[C@@H](NC(=O)OC(C)(C)C)CC(=O)c2ccccc21` was 86 to 88 °C; that for `O=C1c2ccccc2OCC1C(=O)C(F)(F)F` (configuration not stated) was 81 to 83 °C; that for `Cc1nc(-c2ccc(O)cc2)sc1C` was 194 to 195 °C.

`COc1ccccc1-c1ccc(C[C@H](NC(=O)C(C)c2c(Cl)cccc2Cl)C(=O)O)cc1` (some centres not stated) came in with a melting point of 109 to 110 °C. Under `COc1cc(Nc2nccc(Nc3ccc(CCO)cc3)n2)cc(OC)c1OC` stands 172 °C; under `COc1ccc(C(NCC(=O)Nc2c(C(C)C)cccc2C(C)C)c2ccccc2)cc1` (configuration not stated), 117 to 118 °C. On to `Cc1cc(-c2ccc(Cl)cc2)nc(-n2cnc(-c3ncc(S(N)(=O)=O)s3)c2)n1`, for which the melting point was 256 °C.

`CC(C)(C)OC(=O)N1CCN(c2ccc3[nH]c(S)nc3c2)CC1` displayed a melting point of 219 to 220 °C. Under `O=CN(O)C(CS(=O)(=O)c1ccc(-c2ccc(C(F)(F)F)cc2)cc1)c1cccnc1` (configuration not stated) stands 186 to 189 °C; under `CC(=O)OC1CC(n2cc(C=CBr)c(=O)[nH]c2=O)OC1CC#N` (configuration not stated), 96 °C; under `Cc1nc(-n2cc(CCCc3ccccc3)nn2)sc1C(=O)NCc1ccccc1`, 94 to 97 °C. The value for `CC(C)c1cc2sccc2c2c3c([nH]c12)CCNC3` was 197 to 199 °C; that for `Cc1[nH]n(Cc2cccc(C(=O)O)c2)c2nc(-c3ccncc3)nc(=O)c1-2` was over 300 °C. Molecule `O=C(NCc1cccnc1)c1ccc2n1Cc1ccccc1N(C(=O)/C=C/c1ccccc1)C2` yielded a melting point of 175 °C. The value for `O=C1c2ccccc2C(=O)N1CC(=O)N1c2ccccc2N(Cc2ccccc2)C(=O)CC1c1ccccc1` (configuration not stated) was 127 to 128 °C; that for `N#CCC(=O)Nc1ccc(-c2ccc(C(=O)O)c(=O)[nH]2)cc1` was over 280 °C; that for `Cc1cc(OC2CCS(=O)(=O)CC2)cc(C)c1-c1cccc(COc2ccc(C3CC3C(=O)O)cc2)c1` (configuration not stated) was 161 to 162 °C. Under `COc1ccccc1NC1CN(C(c2ccccc2)c2ccccc2)C1` stands 75 to 77 °C; under `O=[PH](c1ccc(Cl)cc1)c1ccc(Cl)cc1`, 124 °C.

For `COc1ccccc1Oc1c(Cl)nc(SC)nc1Cl`, the melting point is 148 to 150 °C.

Molecule `O=P(O)(O)C(F)(F)c1ccc(CN(Cc2ccc(C(F)(F)P(=O)(O)O)cc2)S(=O)(=O)CCc2ccccc2)cc1` displayed a melting point of 181 to 183 °C. The value for `CC(C)(C)c1csc(-c2cc3cc(Cc4nc(C(=O)O)cs4)ccc3o2)n1` was 227 to 230 °C; that for `COC(=O)C1(CC(CCCl)=C(C)C)C(=O)C=C(OC(C)C)CC1C` (configuration not stated) was 76 to 77 °C. Regarding `Cc1ccc(Cl)c(Nc2ccccc2C=C2SC(=N)NC2=O)c1Cl`, the melting point was 235 to 238 °C. Under `CN1CCCCc2cc(Nc3ncc(Cl)c(Nc4ccccc4NS(C)(=O)=O)n3)ccc21` stands 170 to 172 °C; under `Cc1cccc(NC(N)=S)c1N1CCOCC1`, 178 to 179 °C. The value for `Fc1ccc(-c2ccc(-c3cc(N4CCNCC4)nnc3C(F)(F)F)cc2)cc1` was 162 °C; that for `Cc1sc2c(c1C(=O)c1ccc([N+](=O)[O-])cc1)CCC2C(=O)O` (configuration not stated) was 156 to 158 °C. The value for `CNc1nc(N2CCN(C)CC2)nc2ccc(Cl)cc12` was 173 to 176 °C; that for `CC(=O)NCC1CN(c2ccc(-c3cccc(CN(CC(N)=O)CC(N)=O)c3)c(F)c2)C(=O)O1` (configuration not stated) was 213 °C. For the molecule `Cc1ccc(N(C)S(=O)(=O)c2cccs2)c2[nH]c(C3=NCC(CCO)S3)cc12` (configuration not stated), the melting point lay within 168 to 169 °C.

In turn, `CCOC(=O)CCCCC(=O)OCC1=C(C(=O)OCC)C(c2ccccc2Cl)C(C(=O)OCC)=C(C)N1` (configuration not stated) gave a melting point of 91 to 92 °C. The value for `CCOc1cccc2cc(S(=O)(=O)Nc3ccc(OC)cc3)c(=O)oc12` was 196 to 198 °C.
